Tested on: BBMVE cell monolayer challenged with DutchAβ40
Experiment: Cytokines inhibition study (IL-6, IL-1β, TNF-α ELISA)
Assay type: cell-based, bovine
Settings: 24 hr; TNV=1.74 mg/ml, DutchAβ40=25 μg/ml, cyclophosphamide=3.05 mg/ml
Protocol: At the end of 24 hour treatment, the luminal or abluminal solutions of the control and the treated Transwells® was assayed for IL-6, IL-1β and TNF-α using cytokine enzyme linked immunosorbent assay (ELISA) kit (Thermo Scientific, Rockford, Ill.). The cytokine levels secreted by the control BBMVE cell monolayer incubated with hanks balanced salt solution (HBSS) were used as the baseline values.

With `O=P1(N(CCCl)CCCl)NCCCO1` (stereo not shown) [cyclophosphamide] the “secretion of IL-6, IL-1β and TNF-α triggered by DutchAβ40, luminal side” value was “significant decrease”.
